Laboratory results reported in patent US8389555B2, “Medicaments” (Motac Neuroscience Limited, priority 2007, dated 2013).
Counter-ions that a name gives are not always drawn.

How the values were obtained:
[1] = biological target: T1, recombinant human D2(short) dopamine receptor (Homo sapiens, UniProt P14416); assay: Dopamine D2S receptor binding assay ([3H]spiperone, CHO cell membranes); conditions: human D2S receptors in CHO cells, 0.2 nM [3H]spiperone, mean ± SEM; read-out: Affinity Ki (D2)
T1 construct: expressed in transfected cells; host or cells: CHO-D2S cells (per Hayes et al. 1992)
Method in brief: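 Membranes from CHO cells expressing human D2S receptor, incubated with 0.2 nM [3H]spiperone in Tris-HCl pH 7.4 with NaCl, KCl, CaCl2, MgCl2, 120 min at 25 °C; nonspecific binding with 10 μM BP 897. Filtration and scintillation counting; seven concentrations in triplicate, Ki from IC50 by Cheng-Prusoff, mean±SEM.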

[2] = biological target: T2, human dopamine D3 receptors (Homo sapiens, UniProt P35462); assay: Dopamine D3 receptor binding assay ([3H]spiperone, CHO cell membranes)
T2 construct: expressed in transfected cells
Method in brief: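 CHO cell membranes expressing human D3 incubated with 0.2 nM [3H]spiperone in Tris-HCl pH 7.4 with 120 mM NaCl, 5 mM KCl, 2 mM CaCl2, 1 mM MgCl2 at 25° C for 120 min; nonspecific binding with 10 μM BP 897. Filtration read-out; seven concentrations in triplicate, Ki via Cheng-Prusoff.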

[3] = test system: 6-OHDA-lesioned rat model of Parkinson's disease; assay: Rotational behaviour in 6-OHDA-lesioned rat model of Parkinson's disease; assay type: in vivo; conditions: following oral or intra-peritoneal application; FIGS. 12, 16, 17
Method: Preparation of 6-OHDA-Lesioned Rat Model of Parkinson's Disease
Male Sprague-Dawley rats weighing 290-350 g were used. The rats were housed in a temperature-controlled room under a 12 hour light/dark cycle with free access to food and water. Thirty minutes prior to surgery, the animals were given the monoamine oxidase-B inhibitor pargyline (5 mg/kg i.p.;) and the noradrenaline uptake inhibitor desipramine (25 mg/kg i.p.). The rats were then placed under general anaesthesia (Flourothane) and immobilised in stereotaxic frame. Following reflection of cranial skin and periostium, a small bur-hole was made in the skull on the right side and a small puncture was made in the dura mater. Each animal then received a unilateral injection of 2.5 μl of the neurotoxin 6-hydroxydopamine hydrobromide (6-OHDA HBr; 5 mg/ml in sterile water with 0.1% ascorbic acid; i.e. 12.5 μg 6-OHDA per rat) into the right medial forebrain bundle at stereotaxic co-ordinates −2.8 mm from bregma, 2 mm lateral to the midline, and 9 mm below the skull. The 6-OHDA injection was made over a 5 minute period using a 5 μl Hamilton syringe. The rats were allowed to recover for 3 weeks following the lesion. Animals then received 0.05 mg/kg s.c. apomorphine to assess the extent of lesion. Animals displaying clear rotational behaviour directed contralateral to the lesioned side were selected for further studies.
Only lesioned animals were used in the study (as determined by apomorphine rotation).
Animals were administered a dose of the test compound at 1 mg/kg or 3 mg/kg (i.p.) and rotational behaviour was assessed for up to 4 hours following drug administration using automated rotometers. Alternatively, animals were administered a dose of the test compound at 10 mg/kg (p.o.) and rotational behaviour was assessed for up to 8 hours following drug administration using automated rotometers.
Each compound was administered to at least 5 rats.
Total net rotational activity. This parameter is calculated as the total number of 180° rotations (net contralateral) over the duration of the experiment.
Data were analysed independently for each novel compound with appropriate parametric statistics. All tests were carried out in Graphpad Prism Version 3.

[4] = patients treated with pramipexole; cited from earlier work

T2 sequence (P35462 whole entry): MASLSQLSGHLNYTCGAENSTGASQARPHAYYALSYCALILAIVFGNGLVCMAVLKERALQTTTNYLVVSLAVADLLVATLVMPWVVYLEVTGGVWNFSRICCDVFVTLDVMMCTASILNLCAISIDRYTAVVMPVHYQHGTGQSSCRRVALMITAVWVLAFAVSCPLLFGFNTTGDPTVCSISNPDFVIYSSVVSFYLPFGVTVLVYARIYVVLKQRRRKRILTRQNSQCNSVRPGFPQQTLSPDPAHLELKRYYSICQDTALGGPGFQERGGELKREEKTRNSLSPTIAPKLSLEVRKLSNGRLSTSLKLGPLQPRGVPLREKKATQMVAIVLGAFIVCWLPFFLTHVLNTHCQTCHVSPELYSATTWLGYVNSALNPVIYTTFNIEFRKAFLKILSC
T1 sequence (P14416 1-414 isoform P14416-2): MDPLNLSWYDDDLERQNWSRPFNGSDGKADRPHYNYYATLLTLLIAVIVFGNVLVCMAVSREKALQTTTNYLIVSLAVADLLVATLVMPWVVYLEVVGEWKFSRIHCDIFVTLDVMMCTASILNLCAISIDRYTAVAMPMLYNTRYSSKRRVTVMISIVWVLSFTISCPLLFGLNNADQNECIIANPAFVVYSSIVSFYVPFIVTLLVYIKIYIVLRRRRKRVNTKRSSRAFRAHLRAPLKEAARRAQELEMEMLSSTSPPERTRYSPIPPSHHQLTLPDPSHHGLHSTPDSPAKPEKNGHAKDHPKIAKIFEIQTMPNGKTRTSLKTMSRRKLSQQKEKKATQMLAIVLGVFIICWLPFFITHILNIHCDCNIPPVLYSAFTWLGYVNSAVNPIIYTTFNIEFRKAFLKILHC

Structure (SMILES) | Ki [1] [nM] | Ki ([2]; human D3 receptors in CHO cells, 0.2 nM [3H]spiperone, mean ± SEM, read-out: Affinity Ki (D3)) [nM] | Selectivity Ki(D2)/Ki(D3) ([2]; ratio of Ki(D2) to Ki(D3)) | onset and persistence of activity [3] | patients who may develop oedema [4]
CCCN(CCCCC(=O)NC12CC3CC(CC(C3)C1)C2)C1CCc2ncsc2C1 (centres unmarked) [Compound 68, N-Adamantanyl-5-(propyl-(4,5,6,7-tetrahydrobenzothiazol-6-yl)amino)pentanamide] | 457 ± 228 | 1.54 ± 0.46 | 297 | sustained activity over a number of hours | 
CCCN[C@H]1CCc2nc(N)sc2C1 [pramipexole, (S)-2-amino-4,5,6,7-tetra-hydro-6-(propylamino)benzothiazole dihydrochloride mono-hydrate] |  |  |  |  | 1-10%
